Experimental data: patent US8901313B2, “6,5-heterocyclic propargylic alcohol compounds and uses therefor” (Genentech, Inc., priority 2011, dated 2014)

Experiments:
[1] = target: T1, nuclear factor-kappa B (NF-kB)-inducing kinase (NIK) (Homo sapiens, UniProt Q99558); assay: NIK Enzyme Inhibition Assay (Transcreener ADP assay); format: biochemical; settings: purified NIK 0.2-1 nM, 10 uM ATP, fluorescence polarization, Morrison's quadratic equation; read-out: inhibitory value (Ki) for NIK
T1 construct: made in house; host or cells: baculovirus-infected insect cells

[2] = test system: NF-kB signaling through NIK in human embryonic kidney 293 cells; assay: 293-NIK NF-kB-Luciferase reporter assay; format: cell-based; settings: HEK293, 293 cells with tetracycline-inducible NIK, 1 ug/mL doxycycline, 24 hours, read-out: inhibitory value (IC50) for 293-NIK NF-kB-Luciferase activity
From the text: (1) The first assay was used to profile whether a test compound can inhibit the NF-kB signally through NIK inhibition without affecting cell viability. In this assay, human embryonic kidney 293 cells was stably transfected with a tetracycline-inducible NIK DNA construct containing a cytomegalovirus promoter plus two reporter DNA constructs. One reporter encoded firefly luciferase under the control of three repeats of an NF-kB response element from the ELAM-1 gene and reflects the level of NIK activity in the cells, whereas the other reporter constitutively expressed Renilla luciferase under the control of the herpes simplex virus thymidine kinase promoter and served as a general measure of cell viability. Cells were incubated with different concentrations of compounds (0.2% DMSO final) in medium containing 1 ug/mL doxycycline and 10% tet-system approved fetal bovine serum (Clontech) for 24 hours, after which the reporters' signals were detected using the Dual Glo luciferase detection system (Promega) according to the vendor's protocol. The compounds listed in Table 1 have the corresponding inhibitory value (IC50 in micromolar) for 293-NIK NF-kB-Luciferase activity (values for compounds are presented in the same order as found in Table 1): na, 0.059, na, na, na, 0.105, 0.027, na, 20, 1.2, na, 1.8, 0.0231, 0.879, 0.0361, 0.582, na, 0.142, na, 0.403, 0.059, 0.0331, na, na, 0.0573, 1.5, na, na, 0.0722, na, na, 0.589, 12.7, 3.7, 14.9, na, 0.707, 1, 0.0311, 0.332, 0.309, 0.0142, 0.051, 2.8, 0.129, na, na, 1.5, na, na, na, 1.3, 0.062, 20, 0.31, 0.104, 0.091, 0.037, 0.085, 0.279, na, 0.305, 0.064, 0.332, 0.133, 0.168, 0.217, 0.553, na and na.

[3] = test system: p52 (NF-kB2) nuclear translocation in HeLa cells; assay: NIK p52 Translocation Assay (non-classical NF-kB signaling); format: cell-based; settings: Homo sapiens; HeLa cells, 100 ng/mL anti-lymphotoxin beta receptor antibody, 5 hours; read-out: inhibitory value (IC50) for NIK p52 Translocation Assay
Protocol: (2) A second set of cell assay was used to define the selectivity of NIK inhibitors toward inhibition of classical vs. non-classical NF-kB signaling and rely on quantification of the nuclear translocation of p52 (NF-kB2) and REL-A (p65) using high content cellular imaging. For the p52 (non-classical NF-kB signaling) nuclear translocation assay, HeLa cells were treated with different concentrations of compounds (0.2% DMSO final) in medium containing 10% fetal bovine serum and then stimulated with 100 ng/mL of an anti-lymphotoxin beta receptor antibody (R&D Systems) for 5 hours. In the REL-A nuclear translocation assay, HeLa cells were incubated with compounds (0.2% DMSO final) for 4.5 hours in medium containing 10% fetal bovine serum before stimulating them with 10 ng/mL tumor necrosis factor (TNF)-α (R&D Systems) for 30 minutes. Cells were fixed with 4% paraformaldehyde, permeabilized by adding 0.1% Triton X-100 in phosphate buffered saline, and then incubated with either 2 ug/mL anti-p52 antibody (Millipore) or 400 ng/mL anti-REL-A (p65) antibody (Santa Cruz Biotechnology). Finally, the cells were incubated with an Alexa488-labeled secondary antibody (Invitrogen) and DRAQ5 DNA stain (Biostatus). Imaging was carried out using an Opera reader (Perkin Elmer) and data are analyzed with the aid of Acapella software (Perkin Elmer). The p52 or REL-A translocation into the nucleus was quantified by the ratio of the nuclear to cytoplasmic signal intensity. The concentration of inhibitor required for 50% inhibition (IC50 values) in these cell assays were derived from the plots of signal vs. inhibitor concentration. The compounds in listed in Table 1 have the corresponding inhibitory value (IC50 in micromolar) for NIK p52 Translocation Assay (values for compounds are presented in the same order as found in Table 1, and “na” means the data for this assay is to be determined): 0.326, 0.33, na, na, na, 0.218, 0.07, na, na, na, 0.129, 7.6, 0.077, 3.4, na, 0.518, na, 0.059, 0.514, 0.127, na, na, 0.010, na, na, 0.313, 0.275, na, 0.0727, na, na, na, na, na, na, 0.194, na, 6.4, 0.22, 0.346, na, na, na and na, na, na, na, na, na, 0.447, na, 0.089, 0.479, 0.489, 0.243, 0.747, 1, na, 1.9, 0.552, 2.1, na. na, na, na, na and na.

T1 sequence (Q99558 whole entry): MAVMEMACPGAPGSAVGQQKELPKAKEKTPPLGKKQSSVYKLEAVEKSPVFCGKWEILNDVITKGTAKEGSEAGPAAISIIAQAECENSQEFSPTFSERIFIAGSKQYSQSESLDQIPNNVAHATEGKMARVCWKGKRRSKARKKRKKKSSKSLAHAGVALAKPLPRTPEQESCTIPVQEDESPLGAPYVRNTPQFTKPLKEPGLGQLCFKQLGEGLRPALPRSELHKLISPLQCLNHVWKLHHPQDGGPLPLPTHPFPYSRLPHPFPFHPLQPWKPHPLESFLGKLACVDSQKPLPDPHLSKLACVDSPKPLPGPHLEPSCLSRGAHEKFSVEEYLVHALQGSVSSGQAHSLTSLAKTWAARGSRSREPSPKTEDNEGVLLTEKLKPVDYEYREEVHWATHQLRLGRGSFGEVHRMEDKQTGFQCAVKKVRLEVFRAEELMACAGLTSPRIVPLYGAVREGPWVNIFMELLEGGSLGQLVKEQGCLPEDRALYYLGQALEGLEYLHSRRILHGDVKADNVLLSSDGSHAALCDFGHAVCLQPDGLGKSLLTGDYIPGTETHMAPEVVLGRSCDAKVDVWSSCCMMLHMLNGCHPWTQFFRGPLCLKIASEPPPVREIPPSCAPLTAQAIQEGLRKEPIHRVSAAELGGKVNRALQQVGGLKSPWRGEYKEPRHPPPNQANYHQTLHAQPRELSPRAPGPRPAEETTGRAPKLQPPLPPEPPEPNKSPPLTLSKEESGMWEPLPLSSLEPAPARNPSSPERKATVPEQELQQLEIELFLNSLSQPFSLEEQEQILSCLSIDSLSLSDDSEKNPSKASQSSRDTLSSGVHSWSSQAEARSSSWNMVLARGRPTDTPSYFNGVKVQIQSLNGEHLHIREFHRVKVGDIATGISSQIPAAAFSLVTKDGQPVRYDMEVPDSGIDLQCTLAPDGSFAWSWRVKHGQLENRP

Ki [1] [nM]	SMILES	IC50 [2] [nM]	IC50 [3] [nM]
45.9	N#Cc1ccc2cnn(-c3nc(N)ncc3N)c2c1 [Example T1-9, 1-(2,5-diaminopyrimidin-4-yl)-1H-indazole-6-carbonitrile]	20000	–
559	CC1(C(=O)Nc2cnc(N)nc2-n2ncc3ccc(C#N)cc32)COC1 [Example T1-11, N-(2-amino-4-(6-cyano-1H-indazol-1-yl)pyrimidin-5-yl)-3-methyloxetane-3-carboxamide]	–	129
9.3	Cc1nc2ccc(C#CC(C)(O)c3nccs3)cc2n1-c1ccnc(N)n1 (stereo not drawn) [Example T1-12, 4-(1-(2-aminopyrimidin-4-yl)-2-methyl-1H-benzo[d]imidazol-6-yl)-2-(thiazol-2-yl)but-3-yn-2-ol]	1800	7600
190	CC(O)(C#Cc1ccc2cnn(-c3ccnc(N)n3)c2c1)C(F)F (stereo not drawn) [Example T1-19, 4-(1-(2-aminopyrimidin-4-yl)-1H-indazol-6-yl)-1,1-difluoro-2-methylbut-3-yn-2-ol]	–	514
> 5000	COc1ncccc1Nc1ncnc(-n2ncc3ccc(C#N)cc32)n1 [Example T1-23, 1-(4-(2-methoxypyridin-3-ylamino)-1,3,5-triazin-2-yl)-1H-indazole-6-carbonitrile]	–	10
61	CC(O)(C#Cc1ccc2ncn(-c3ccnc(N)n3)c2c1)C(F)F (stereo not drawn) [Example T1-26, 4-(1-(2-aminopyrimidin-4-yl)-1H-benzo[d]imidazol-6-yl)-1,1-difluoro-2-methylbut-3-yn-2-ol]	1500	313
570	CC(O)(C#Cc1ccc2ncn(-c3ccnc(N)n3)c2c1)C(F)(F)F (stereo not drawn) [Example T1-27, 4-(1-(2-aminopyrimidin-4-yl)-1H-benzo[d]imidazol-6-yl)-1,1,1-trifluoro-2-methylbut-3-yn-2-ol]	–	275
23	CC(O)(C#Cc1ccc2ncn(-c3ccnc(N)n3)c2c1)c1cn[nH]c1 (stereo not drawn) [Example T1-33, 4-(1-(2-aminopyrimidin-4-yl)-1H-benzo[d]imidazol-6-yl)-2-(1H-pyrazol-4-yl)but-3-yn-2-ol]	12700	–
92.1	CC(O)(C#Cc1ccc2ncn(-c3ccnc(N)n3)c2c1)C1CC1 (stereo not drawn) [Example T1-34, 4-(1-(2-aminopyrimidin-4-yl)-1H-benzo[d]imidazol-6-yl)-2-cyclopropylbut-3-yn-2-ol]	3700	–
18	CC(O)(C#Cc1ccc2cnn(-c3ccnc(N)n3)c2c1)c1cn[nH]c1 (stereo not drawn) [Example T1-35, 4-(1-(2-aminopyrimidin-4-yl)-1H-indazol-6-yl)-2-(1H-pyrazol-4-yl)but-3-yn-2-ol]	14900	–
850	CC(C)(O)C#Cc1ccc2cnn(-c3cc(N)ncn3)c2c1 [Example T1-36, 4-(1-(6-aminopyrimidin-4-yl)-1H-indazol-6-yl)-2-methylbut-3-yn-2-ol]	–	194
2.3	CC(O)(C#Cc1ccc2ncn(-c3ccnc(N)n3)c2c1)CF (stereo not drawn) [Example T1-37, 4-(1-(2-aminopyrimidin-4-yl)-1H-benzo[d]imidazol-6-yl)-1-fluoro-2-methylbut-3-yn-2-ol]	707	–
16	CCOc1nc2ccc(C#CC(C)(C)O)cc2n1-c1ccnc(N)n1 [Example T1-38, 4-(1-(2-aminopyrimidin-4-yl)-2-ethoxy-1H-benzo[d]imidazol-6-yl)-2-methylbut-3-yn-2-ol]	1000	6400
3	CC(C)(O)C#Cc1cc2c(cc1F)ncn2-c1ccnc(N)n1 [Example T1-40, 4-(1-(2-aminopyrimidin-4-yl)-5-fluoro-1H-benzo[d]imidazol-6-yl)-2-methylbut-3-yn-2-ol]	332	346
152	CC(O)(C#Cc1ccc2ncn(-c3nccc(N)n3)c2c1)c1nccs1 (stereo not drawn) [Example T1-50, 4-(1-(4-aminopyrimidin-2-yl)-1H-benzo[d]imidazol-6-yl)-2-(thiazol-2-yl)but-3-yn-2-ol]	–	447
383	Cc1nonc1C(C)(O)C#Cc1ccc2c(C)nn(-c3ccnc(N)n3)c2c1 (stereo not drawn) [Example T1-61, 4-(1-(2-aminopyrimidin-4-yl)-3-methyl-1H-indazol-6-yl)-2-(4-methyl-1,2,5-oxadiazol-3-yl)but-3-yn-2-ol]	–	2100
11	CC(O)(C#Cc1ccc2c(C(=O)N3CCCC(O)C3)nn(-c3ccnc(N)n3)c2c1)c1ncccn1 (stereo not drawn) [Example T1.1-145, [1-(2-aminopyrimidin-4-yl)-6-(3-hydroxy-3-pyrimidin-2-yl-but-1-ynyl)indazol-3-yl]-(3-hydroxy-1-piperidyl)methanone]	–	–
3400	CC(O)(C#Cc1ccc2c(C(=O)N3CC(O)C3)nn(-c3ccnc(N)n3)c2c1)c1ncccn1 (stereo not drawn) [Example T1.1-146, [1-(2-aminopyrimidin-4-yl)-6-(3-hydroxy-3-pyrimidin-2-yl-but-1-ynyl)indazol-3-yl]-(3-hydroxyazetidin-1-yl)methanone]	–	–
4	CC(O)(C#Cc1ccc2c(C(=O)N3CC(C#N)C3)nn(-c3ccnc(N)n3)c2c1)c1ncccn1 (stereo not drawn) [Example T1.1-147, 1-[1-(2-aminopyrimidin-4-yl)-6-(3-hydroxy-3-pyrimidin-2-yl-but-1-ynyl)indazole-3-carbonyl]azetidine-3-carbonitrile]	–	–
0.1	CC(O)(C#Cc1ccc2c(C(=O)NC3COC3)nn(-c3ccnc(N)n3)c2c1)c1ncccn1 (stereo not drawn) [Example T1.1-148, 1-(2-aminopyrimidin-4-yl)-6-(3-hydroxy-3-pyrimidin-2-yl-but-1-ynyl)-N-(oxetan-3-yl)indazole-3-carboxamide]	–	–
0.3	CC(O)(C#Cc1ccc2c(C(=O)N3CCOCC3)nn(-c3ccnc(N)n3)c2c1)c1ncccn1 (stereo not drawn) [Example T1.1-149, [1-(2-aminopyrimidin-4-yl)-6-(3-hydroxy-3-pyrimidin-2-yl-but-1-ynyl)indazol-3-yl]-morpholino-methanone]	–	–
2	CC(O)(C#Cc1ccc2c(C(=O)NCC#N)nn(-c3ccnc(N)n3)c2c1)c1ncccn1 (stereo not drawn) [Example T1.134, 1-(2-aminopyrimidin-4-yl)-N-(cyanomethyl)-6-(3-hydroxy-3-pyrimidin-2-yl-but-1-ynyl) indazole-3-carboxamide]	–	–
